These results are taken from US20190125867A1, “THERAPEUTIC AGENT FOR SOLID CANCER” (IDAC THERANOSTICS, INC., priority 2014, published 2019).

Some results are limits rather than exact numbers.

Experiment [1] has as its system mouse melanoma cell line B16F10. The experiment is described as follows: Tumor volume in C57BL/6 mice transplanted with melanoma cell line B16F10. Format: in vivo. The note with it: Day 15. The protocol: On Day −2 (two days before the cancer cell transplantation), Day 0 (=day of cancer cell transplantation), Day 3, Day 5, Day 9, or Day 12, 0.2 mg of an anti-CD4 antibody (GK1.5; an antibody known to be capable of causing depletion of CD4+ cells in the mouse body by the CDC activity; manufactured by BioXcell) was intraperitoneally administered at one time. The solid tumor diameter was measured on Day 14, and the tumor volume was calculated by short diameter×short diameter×long diameter×π/6.
On Day 5, 3.125 μg, 12.5 μg, 50 μg, or 200 μg of the anti-CD4 antibody was administered (negative control group: no antibody was administered).
The solid tumor diameter in each mouse was measured, and the tumor volume was calculated (short diameter×short diameter×long diameter×π/6).
Thereafter, antibody administration was carried out as follows (Day 0=day of cancer cell transplantation).
The tumor volume was calculated (short diameter×short diameter×long diameter×π/6) from the solid tumor diameter measured on Day 18.
The tumor volume was calculated (short diameter×short diameter×long diameter×π/6) from the solid tumor diameter measured on Day 15.
The tumor volume was calculated (short diameter×short diameter×long diameter×π/6) from the solid tumor diameter measured on Day 16.

In experiment [2] the test system is CD4+ cells in human peripheral blood mononuclear cells. The experiment is described as follows: ADCC activity assay (Promega ADCC activity assay kit, PBMCs + ADCC Bioassay Effector cells). The experiment is classed as cell-based. As to conditions: 12,500 PBMCs, 75,000 effector cells, 37° C. 6 hours; FIG. 1. The protocol: Measurement of the ADCC activity of IT1208 was carried out under the following conditions, according to the protocol for an ADCC activity assay kit sold by Promega. After gently mixing 12,500 PBMCs derived from a healthy individual, anti-CD4mAb (IT1208), and 75,000 ADCC Bioassay Effector cells contained in the Promega kit, the cells were cultured in a CO2 incubator at 37° C. for 6 hours. The luminescent reagent Bio-Glo reagent was added to the culture, and culturing was then continued at room temperature for 20 minutes, followed by measuring chemiluminescence using a luminescence plate reader.

Where [3] appears, read: Example 7 (small molecule anticancer agents), anti-CD4 0.2 mg Day 5, 9, OXA 10, GEM 20, CPA 10 mg/kg Day 5, 9, 12, 16, FIG. 23.

In the case of `O=c1[nH]cc(F)c(=O)[nH]1` [5-FU], the “growth of solid tumor relative to control group” value in experiment [1] (Example 4, anti-CD4 0.2 mg once Day 5, anti-CD137 0.1 mg Day 5-9, 5-FU 50 mg/kg four times, FIG. 13) is on record as 36%.
On to `O=P1(N(CCCl)CCCl)NCCCO1` (stereo not shown) [CPA, Cyclophosphamide], for which the “growth of solid tumor relative to control group” value in experiment [1] (setting [3]) was 75%.
Still for that read-out and setting: the value for `Nc1ccn([C@@H]2O[C@H](CO)[C@@H](O)C2(F)F)c(=O)n1` [GEM, Gemcitabine] was 63%.
On to Rituximab, for which the “concentration at which ADCC activity began to be found” value in experiment [2] was ≥ 10 nM.
